Data: patent publication US12370352B2, “Nasal and ophthalmic delivery of aqueous corticosteroid solutions” (CyDex Pharmaceuticals, Inc., priority 2007, dated 2025)
Where a name gives a salt, the structure may show the parent alone.

Assays:
[1] = Equilibrium binding constants (K) of corticosteroids with CAPTISOL (Example 46); details: CAPTISOL (0.04 M); in M-1 (unit assumed)
Source text: (§1) The binding of a corticosteroid to the SAE-CD can be characterized by its equilibrium binding constant. The higher the binding constant, the more tightly the corticosteroid is bound to the SAE-CD.

[2] = Equilibrium binding constants (K) of corticosteroids with SBE6.1-γ-CD (Example 46); details: (SBE)6.1 γ (0.04 M); in M-1 (unit assumed)
Source text: as §1

[3] = format: binding
Procedure: A composition of the invention can comprise SAE-CD, corticosteroid, aqueous liquid carrier, and an antihistamine. In some embodiments, the composition contains SAE-CD, budesonide, water (or aqueous buffer) and azelastine. Example 14 details the preparation of such a composition. Other solutions of azelastine in buffer with varying amounts of SAE-CD, in the absence of budesonide, were prepared and scanned by UV Spectrometer. The change in absorption as a function of SAE-CD concentration was plotted and used to determine the equilibrium binding constant of azelastine with SAE-CD, according to the Benesi-Hildebrand equation. […] The binding constant for budesonide under similar conditions was determined to be about 1000; therefore, azelastine will compete with budesonide, or another corticosteroid, for binding to SAE-CD. Accordingly, the amount of SAE-CD present can be increased to permit complete dissolution of both drugs.
(§2) The equilibrium binding constant of the corticosteroid can change when a second active agent is present in a composition of the invention. Since azelastine hydrochloride (AZ-HCl) has an approximately 10-fold higher binding constant for SBE-β-CD than does budesonide (BUD), the amount of SBE-β-CD present in an aqueous composition of the three needs to be sufficient to solubilize both drugs. Example 19 details a procedure for determination of the phase solubility of budesonide in the presence of varying amounts of azelastine. The results are depicted in FIGS. 11A (for SBE-β-CD) and 11B (for SBE-β-CD and SBE-γ-CD). […] FIG. 11B is a chart of the phase solubility of BUD as a function of SBE-β-CD or SBE-γ-CD concentration in solution using various different concentrations of AZ-HCl (1.00-2.75 mg.mL). […] Thus, increasing the amount of AZ-HCl in the solution decreases the overall solubility of BUD. […] Therefore, it is advantageous to prepare solution compositions of these combinations using SBE-γ-CD due to the efficiency of interaction so as to require less of one SAExCD versus another different SAEyCD to solubilize similar amounts of actives in the presence of each other.

[4] = format: binding; remark: listed apart in the source
Source text: as §2

[5] = Stability of budesonide R- and S-isomers with and without SBE7-β-CD (Example 13); format: physicochemical; details: pH 4 and 6, all temperatures (60° C., 80° C.)
Procedure: SAE-CD is also capable of stabilizing the isomers of budesonide to different extents. […] At a given temperature the ratio of rate constants with/without SBE7-β-CD was less at pH 6 than at pH 4. Although SBE7-β-CD stabilized both isomers, the S-isomer appears to be stabilized to an even greater extent than the R. At all temperatures and pHs tested, the ratio of rate constants with/without SBE7-β-CD was lower for the S isomer. The degree of stabilization affected by SBE7-β-CD at 60° C. is greater than at 80° C. An even greater degree of stabilization would be expected at 40° C. and/or room temperature (20-30° C.). […] The loss of budesonide was first order and […]. […] To achieve a concentration of budesonide in the buffers without SBE7-β-CD sufficient for accurate measurement, the budesonide was dissolved first in 100% ethyl alcohol. […] All solution preps and procedures involving budesonide were done in a darkened room under red light. […] The final budesonide concentration was about 50 μg/mL. […] Each solution was aliquoted into individual amber vials. They were then placed in ovens at 60° C. and 80° C. Sample vials were removed from the ovens and analyzed by HPLC at 0, 96, 164, and 288 hours. The HPLC assay conditions are summarized below. […]

[6] = Phase solubility of budesonide in the presence of SAE-CD and azelastine hydrochloride (Example 19); format: physicochemical; details: SBE-β-CD or SBE-γ-CD solutions, pH 4.5 citrate buffer
Source text: The equilibrium binding constant of the corticosteroid can change when a second active agent is present in a composition of the invention. Since azelastine hydrochloride (AZ-HCl) has an approximately 10-fold higher binding constant for SBE-β-CD than does budesonide (BUD), the amount of SBE-β-CD present in an aqueous composition of the three needs to be sufficient to solubilize both drugs. Example 19 details a procedure for determination of the phase solubility of budesonide in the presence of varying amounts of azelastine. The results are depicted in FIGS. 11A (for SBE-β-CD) and 11B (for SBE-β-CD and SBE-γ-CD). […] FIG. 11B is a chart of the phase solubility of BUD as a function of SBE-β-CD or SBE-γ-CD concentration in solution using various different concentrations of AZ-HCl (1.00-2.75 mg.mL). […] Thus, increasing the amount of AZ-HCl in the solution decreases the overall solubility of BUD. […]
A stock solution of citrate buffer (3 mM, pH 4.5) was prepared. […] Any budesonide remaining suspended in the solutions was removed by filtration and the concentration of budesonide in each solution measured by HPLC as described herein. […]

[7] = Fluticasone propionate concentration in SBE-Gamma ophthalmic solution, excess drug (Example 36 Method A); format: physicochemical; details: 10% w/v SBE-Gamma (D.S.=6.1), 0.01% TWEEN
Procedure: A citrate buffer solution at a pH of 4.5 was prepared by mixing various portions of 0.003M citric acid with 0.003M of trisodium citrate. A phosphate buffer solution at a pH of 6.0 was prepared by mixing various portions of 0.003M monobasic sodium phosphate with 0.003M of dibasic sodium phosphate. […] An excess of fluticasone propionate was added to the vials and equilibrated on a rocker for three days. The samples were then filtered using a PVDF 0.22 μm syringe filter. Aliquots of the solutions were placed into clear glass 2 mL serum vials with aluminum crimp caps and Daikyo Flurotec septums. […] The concentration of the pH 6.0 solution was 238 μg/mL.

[8] = Phase solubility of corticosteroids with cyclodextrins (Example 23)
[9] = Aqueous budesonide/olopatadine/CAPTISOL solution (Example 47); format: physicochemical
Procedure: An aqueous budesonide/olopatadine solution was prepared. […] Three mM citrate buffer was prepared at pH 4.5. […] Those citrate solutions were mixed to adjust the pH to 4.5. […] The solutions were transferred into 250 mL amber beakers with a magnetic stir disk. The solutions were mixed with a magnetic stir disk at 900 rpm at a temperature of 35° C. Approximately 34 milligrams of budesonide was suspended in each CAPTISOL solution. The samples were mixed with a magnetic stir disk at 900 rpm and 35° C. After 24 hours, the samples were filtered through 0.22 μm PVDF filter. The budesonide in the aliquots was assayed by an HPLC assay method and the concentrations were 340 μg/mL. […] Approximately 27 milligrams of olopatadine HCl was weighed into each of three 2 drams amber vials. The olopatadine HCl was suspended to 4 mL of budesonide/CAPTISOL solutions prepared in Part A. The samples were mixed on a roller mixer at RT. After 24 hours, the samples were filtered through 0.22 μm PVDF filter. The olopatadine and budesonide in the aliquots was assayed by HPLC assay methods, respectively. All olopatadine HCl concentrations were >6.6 mg/mL and all budesonide concentrations were >320 μg/mL. […] Approximately 27 milligrams of olopatadine HCl were weighed into each of three 2 drams amber vials. The olopatadine HCl was suspended to 4 mL of budesonide/CAPTISOL solutions prepared in Part A. The samples were mixed on a roller mixer at RT. After 1 hour, the pH of each sample was adjusted to 4.5 with 1N NaOH. Again, the samples were mixed on a roller mixer at RT. […] All samples were filtered through 0.22 μm PVDF filter. The olopatadine and budesonide in the aliquots were assayed by HPLC assay methods, respectively.

| Compound | Binding Constant- K [1] | Binding Constant- K [2] | further results |
| --- | --- | --- | --- |
| CCC(=O)OCC(=O)[C@@]1(OC(=O)CC)[C@@H](C)C[C@H]2[C@@H]3CCC4=CC(=O)C=C[C@]4(C)[C@@]3(Cl)[C@@H](O)C[C@@]21C [Beclomethasone dipropionate, beclomethasone dipropionate] | 684 | 2862 | – |
| CCCC1O[C@@H]2C[C@H]3[C@@H]4CCC5=CC(=O)C=C[C@]5(C)[C@H]4[C@@H](O)C[C@]3(C)[C@]2(C(=O)CO)O1 (stereo partly drawn) [Budesonide, (R,S)-11β, 16α, 17, 21-tetrahydroxypregna-1,4-diene-3, 20-dione cyclic 16, 17-acetal with butyraldehyde] | – | – | Equilibrium complex stability constant with SBE-β-CD [3]: 1000 M⁻¹; Equilibrium complex stability constant with SBE-γ-CD [4]: 2000 M⁻¹; With/without CAPTISOL ratio of degradation rate constants [5]: less than 1; Overall solubility of BUD with increasing amount of AZ-HCl [6]: decreases |
| CC1(C)O[C@@H]2C[C@H]3[C@@H]4C[C@H](F)C5=CC(=O)C=C[C@]5(C)[C@H]4[C@@H](O)C[C@]3(C)[C@]2(C(=O)CO)O1 [Flunisolide] | 590 | 1104 | – |
| CCC(=O)O[C@]1(C(=O)SCF)[C@H](C)C[C@H]2[C@@H]3C[C@H](F)C4=CC(=O)C=C[C@]4(C)[C@@]3(F)[C@@H](O)C[C@@]21C [Fluticasone propionate, fluticasone propionate] | 322 | 3338 | Concentration in solution (excess drug, filtered) ([7]; citrate buffer pH 4.5): 232 µg/mL; Concentration in solution (excess drug, filtered) ([7]; phosphate buffer pH 6.0): 238 µg/mL |
| C[C@]12CCC(=O)C=C1CC[C@@H]1[C@@H]2[C@@H](O)C[C@@]2(C)[C@H]1CC[C@]2(O)C(=O)CO [Hydrocortisone] | 1932 | 1430 | – |
| CC1(C)O[C@@H]2C[C@H]3[C@@H]4CCC5=CC(=O)C=C[C@]5(C)[C@@]4(F)[C@@H](O)C[C@]3(C)[C@]2(C(=O)CO)O1 [Triamcinolone acetonide, triamcinolone acetonide] | – | – | Approximate Molar Ratio at Saturated Solubility of Corticosteroid (SAE-CD:corticosteroid) ([8]; SAE-β-CD): 8.8; Approximate Molar Ratio at Saturated Solubility of Corticosteroid (SAE-CD:corticosteroid) ([8]; SAE-γ-CD): 3.8 |
| CN1CCCC(n2nc(Cc3ccc(Cl)cc3)c3ccccc3c2=O)CC1 (stereo not drawn) [azelastine HCL, azelastine hydrochloride] | – | – | Binding constant for SBE-β-CD relative to budesonide ([3]; AZ-HCl versus BUD): approximately 10 fold |
| CN(C)CC/C=C1/c2ccccc2COc2ccc(CC(=O)O)cc21 [olopatadine HCl] | – | – | Olopatadine HCl concentration ([9]; Part B, all CAPTISOL concentrations (5, 7.5, 10% w/v), pH ~3.8): > 6.6 mg/mL; Olopatadine HCl concentration ([9]; Part C, pH adjusted to 4.5, CAPTISOL 5% w/v (precipitation)): 6.5 mg/mL; Olopatadine HCl concentration ([9]; Part C, pH adjusted to 4.5, CAPTISOL 7.5 and 10% w/v): > 6.6 mg/mL |

More lines, main results first:

| Binding Constant- K [1] | Binding Constant- K [2] | Compound | further results |
| --- | --- | --- | --- |
| 201 | 551 | C[C@@H]1C[C@H]2[C@@H]3CCC4=CC(=O)C=C[C@]4(C)[C@@]3(Cl)[C@@H](O)C[C@]2(C)[C@@]1(OC(=O)c1ccco1)C(=O)CCl [Mometasone Fuorate] | – |
| 1496 | 1653 | C[C@]12C=CC(=O)C=C1CC[C@@H]1[C@@H]2[C@@H](O)C[C@@]2(C)[C@H]1CC[C@]2(O)C(=O)CO [Prednisolone] | – |
